Measurements: US8728777B2, “High performance metabolic bacteria” (Deinove, priority 2009, dated 2014)

Legend:
[1] = system: Deinococcus strain MC2-2A; conditions: ethanol added at T0, 45° C., aerobiosis, Complex medium Glucose, minimum concentration with total growth inhibition
Protocol: (§1) This method enables evaluation of the micro-organism sensitivity to ethanol. The test is carried out at 45° C. (Thermophilic strains). Ethanol bactericidy is determined with ethanol added at: • T0, • exponential phase, • stationary phase.
(§2) For ethanol bactericidy at T0, ethanol percentages between 0 to 10% are tested.
(§3) From a pre-culture in stationary phase in an enriched culture medium, for each ethanol content to be tested, 200 μl of Complex medium Glucose is seeded at 1% v/v.
(§4) Complex Medium Glucose contains: peptone 2 g/L, yeast extract 5 g/L and glucose 10 g/Lin osmosed water: solution sterilized by autoclaving (15 minutes at 120° C.). To this solution are added the following solutions: MOPS buffer solution (10×) pH7 [acid MOPS 400 mM, NH4Cl 200 mM, NaOH 100 mM, KOH 100 mM, CaCl2 5 μM, Na2SO4 2.76 mM, MgCl2 5.28 mM]; micronutrients (10000×) [[…] 300 mM, H3BO3 4 mM, CoCl2 0.3 mM, CuSO4 0.1 mM, MnCl2 2.5 mM, ZnSO4 0.1 mM]; FeCl3(100×) 2 mM in C6H5Na3O7 20 mM; K2HPO4 1 g/L: solutions sterilized by filtration (0.2 μm).
(§5) The test is performed in 96 wells microplates in aerobiosis. Ethanol evaporation is avoided using a sterile impermeable film.
(§6) The reading of the result is done by naked eye.

[2] = system: Deinococcus strain M13-1A; conditions: ethanol added at T0, 45° C., aerobiosis, Complex medium Glucose, minimum concentration with total growth inhibition
Protocol: as §1, §2, §3, §4, §5, §6

[3] = system: Deinococcus strain MC2-2A; conditions: 2 hours incubation, minimum concentration with loss of one log in relation to the control
Protocol: as §1
(§7) Ethanol Bactericidy at Exponential and Stationary Phases Test:
(§8) From a pre-culture in stationary phase in an enriched culture medium, for each ethanol content to be tested, 5 mL of Complex medium Glucose is seeded at 1% v/v.
as §4
(§9) A follow-up of growth is carried out using the control culture (no ethanol add neither at exponential phase nor at stationary phase). OD is read at 600 nm using a spectrophotometer (UV Light XS5, SECOMAM).
(§10) Once the exponential growth phase (optical density of 0.5 at 600 nm), or once the stationary phase (plateau), is reached, the solvent is added. The content tested is 0 to 20%. Then, cultures are incubated during 2 hours.
(§11) At the end of the incubation period and for each ethanol content tested, a count is taken to assess the influence of the ethanol on the strain.
(§12) Count: At the end of incubation, and for each concentration in solvent, 200 μL of culture are transferred onto another microplate and are diluted in cascade (dilutions at 1/10 over 9 wells). The dilution culture medium is an enriched medium.

[4] = system: Deinococcus strain M13-1A; conditions: ethanol added at exponential phase, 2 hours incubation, minimum concentration with loss of one log in relation to the control
Protocol: as §1, §7, §8, §4, §9, §10, §11, §12

CCO [Ethanol, ethanol]
Ethanol Bactericidy T0 [1]: 5% | Ethanol Bactericidy T0 [2]: 2.5% | Ethanol Bactericidy Exponential phase ([3]; ethanol added at exponential phase): 15% | Ethanol Bactericidy Stationary phase ([3]; ethanol added at stationary phase): 15% | Ethanol Bactericidy Exponential phase [4]: 5%
